From PubChem BioAssay AID1259407 (Chemical Carcinogenesis Research Information System (CCRIS), 2018)
The source made the active and inactive calls. The rule behind the calls is not given here. Where a SMILES comes first, the peptide text is derived from it. The star is where a group is joined. For = O=C*

Tested on: CCRIS mutagenicity, Ames/micronucleus/aberration tests
Assay: CCRIS mutagenicity studies
[1] = Test System: AMES SALMONELLA TYPHIMURIUM, Strain/Indicator: TA98, Metabolic Activation: NONE, Method: STANDARD PLATE
[2] = Test System: AMES SALMONELLA TYPHIMURIUM, Strain/Indicator: TA100, Metabolic Activation: NONE, Method: STANDARD PLATE

Measured: mutagenic call

O=C1NC(=O)c2ccccc21
inactive: Test System: Ames Salmonella typhimurium, Strain/Indicator: TA98, Metabolic Activation: None, Method: Preincubation inactive; negative | Test System: Ames Salmonella typhimurium, Strain/Indicator: TA98, Metabolic Activation: Rat, Liver, S-9, Phenobarbital and 5,6-benzoflavone, Method: Preincubation inactive; negative | Test System: Ames Salmonella typhimurium, Strain/Indicator: TA100, Metabolic Activation: None, Method: Preincubation inactive; negative | Test System: Ames Salmonella typhimurium, Strain/Indicator: TA100, Metabolic Activation: Rat, Liver, S-9, Phenobarbital and 5,6-benzoflavone, Method: Preincubation inactive; negative | Test System: Ames Salmonella typhimurium, Strain/Indicator: TA1535, Metabolic Activation: None, Method: Preincubation inactive; negative | Test System: Ames Salmonella typhimurium, Strain/Indicator: TA1535, Metabolic Activation: Rat, Liver, S-9, Phenobarbital and 5,6-benzoflavone, Method: Preincubation inactive; negative | Test System: Ames Salmonella typhimurium, Strain/Indicator: TA1537, Metabolic Activation: None, Method: Preincubation inactive; negative | Test System: Ames Salmonella typhimurium, Strain/Indicator: TA1537, Metabolic Activation: Rat, Liver, S-9, Phenobarbital and 5,6-benzoflavone, Method: Preincubation inactive; negative | Test System: E. coli, Strain/Indicator: WP2uvrA/pKM101, Metabolic Activation: None, Method: Preincubation inactive; negative | Test System: E. coli, Strain/Indicator: WP2uvrA/pKM101, Metabolic Activation: Rat, Liver, S-9, Phenobarbital and 5,6-benzoflavone, Method: Preincubation inactive; negative

CCc1ccc(C)cc1
inactive: Test System: AMES SALMONELLA TYPHIMURIUM, Strain/Indicator: TA97A, Metabolic Activation: NONE, Method: STANDARD PLATE inactive; negative | Test System: AMES SALMONELLA TYPHIMURIUM, Strain/Indicator: TA97A, Metabolic Activation: RAT LIVER S-9, AROCLOR 1254, Method: STANDARD PLATE inactive; negative | [1] inactive; negative | Test System: AMES SALMONELLA TYPHIMURIUM, Strain/Indicator: TA98, Metabolic Activation: RAT LIVER S-9, AROCLOR 1254, Method: STANDARD PLATE inactive; negative | [2] inactive; negative | Test System: AMES SALMONELLA TYPHIMURIUM, Strain/Indicator: TA100, Metabolic Activation: RAT LIVER S-9, AROCLOR 1254, Method: STANDARD PLATE inactive; negative | Test System: AMES SALMONELLA TYPHIMURIUM, Strain/Indicator: TA102, Metabolic Activation: NONE, Method: STANDARD PLATE inactive; negative | Test System: AMES SALMONELLA TYPHIMURIUM, Strain/Indicator: TA102, Metabolic Activation: RAT LIVER S-9, AROCLOR 1254, Method: STANDARD PLATE inactive; negative

CSCC[C@H](NC=O)C(=O)N[C@@H](Cc1ccccc1)C(=O)O (For-Met-Phe-OH)
inactive: [1] inactive; negative | Test System: AMES SALMONELLA TYPHIMURIUM, Strain/Indicator: TA98, Metabolic Activation: RAT, LIVER, S-9, AROCLOR 1254, Method: STANDARD PLATE inactive; negative | [2] inactive; negative | Test System: AMES SALMONELLA TYPHIMURIUM, Strain/Indicator: TA100, Metabolic Activation: RAT, LIVER, S-9, AROCLOR 1254, Method: STANDARD PLATE inactive; negative | Test System: AMES SALMONELLA TYPHIMURIUM, Strain/Indicator: TA1535, Metabolic Activation: NONE, Method: STANDARD PLATE inactive; negative | Test System: AMES SALMONELLA TYPHIMURIUM, Strain/Indicator: TA1535, Metabolic Activation: RAT, LIVER, S-9, AROCLOR 1254, Method: STANDARD PLATE inactive; negative | Test System: AMES SALMONELLA TYPHIMURIUM, Strain/Indicator: TA1537, Metabolic Activation: NONE, Method: STANDARD PLATE inactive; negative | Test System: AMES SALMONELLA TYPHIMURIUM, Strain/Indicator: TA1537, Metabolic Activation: RAT, LIVER, S-9, AROCLOR 1254, Method: STANDARD PLATE inactive; negative
